Results published in patent US20190307691A1, “HYDROGELS WITH LIPOSOMES FOR CONTROLLED RELEASE OF DRUGS” (NORTHERN ILLINOIS RESEARCH FOUNDATION, priority 2018, published 2019).

How the values were obtained:
[1] = Differential scanning calorimetry for thermal stability; settings: DSC, measure of thermal stability
Experimental: Differential scanning calorimetry (DSC) was used to investigate the thermal stability as well as interaction between liposomes and entrapped protein.
For thermal stability analysis of liposomes and encapsulated protein, two mg of standard lipids, protein and liposome samples were loaded in aluminum pans along with the standard reference aluminum in the differential scanning calorimeter (Shimadzu DSC 60). The thermal profiles were recorded between 10° C. and 180° C. at a scan rate of 15° C./min for three cycles.

[2] = L-DOPA oxidation in solution (UV-Vis, LC/MS); assay type: physicochemical
Experimental: The solution was stored with minimal exposure to light. […] In order to accelerate the complete oxidation of L-DOPA starting material, the substance was reacted in at pH 10. […] These hydrophobic oxidation products were separated and collected for in vitro experiments with epithelialcells.
LC/MS analysis was performed using an LCQ Advantage Mass Spectrometer System with a Surveyor LC Pump and PDA Detector (Thermo Finnigan). Separations were performed on a 100 mm×3.0 mm Kinetex C18 column. Mobile phase was 0.1% formic acid in MeOH (B) balanced with water. […] Absorbance was monitored at 280 and 320 nm. For ESI-MS conditions, capillary temperature was 200° C. and spray voltage was set to 4.5 kV. […] Full spectra were collected between m/z range of 200-1000.

[3] = cited from earlier work
[4] = oral, in the absence of decarboxylase inhibitors; cited from earlier work
ARPE-19 cells = assay: MTT cell viability with Avastin and Avastin liposomes; assay type: cell-based; settings: exposed to 2 mg of the antibody
Experimental: ARPE-19 cells purchased from American Type Culture Collection were used. […] Cells were plated in 12-well plates with an initial seeding density of 5×10^4 cells per ml in each plate. Cells were grown to confluency for 4 days prior to experimentation; 12-well plates were used for MTT assays. 1.5 ml of 25 mg/ml Avastin solution was sterile filtered to create a stock solution that was transferred to a sterile centrifuge tube. Each well of the 12 well plate had its media aspirated out and was then rinsed with buffer which was also aspirated out. […] Enough media was added to each well to create a total volume of 1 ml in each well. […] 1.3 ml of 10% MTT 5 mg/ml in PBS and 11.7 ml of 90% media (with phenol red) was used. MTT in PBS was added to the media in a centrifuge tube and then sterile filtered. The filtered mixture was then plated on the 12 well plate (1 ml per well). The plate was then incubated for 90 minutes. After incubation, the MTT media was aspirated. 1 ml of DMSO per well was added. The MTT assay was read at 560 nm.

[5] = Intravitreal drug release and toxicity in rabbit's eye (Fluorotron, ELISA, histopathology); assay type: in vivo, Oryctolagus cuniculus (Dutch belted rabbits); settings: single intravitreal injection
Experimental: The efficacy of the liposomes and the combination product has been tested using rabbit models. The experimental design of this experiment involving Oryctolagus cuniculus (Dutch belted rabbits) was approved by the Northern Illinois University Institutional Animal Care and Use Committee (IACUC) and is as follows. Rabbits were divided into 4 groups and each rabbit was injected with the formulation in the right eye using left eye as control.
Drug release profiles in the rabbit's eye over a period of time was measured non-invasively using the Fluorotron. […] Light re-emitted (reflection and fluorescence) by the fluorescent tag on the protein is sampled from the 1.9×0.1 mm slit, aligned to the excitation and defined by an aperture Rd (which is confocal to Re). […] The configuration of these pupils is in the plane of the subject's pupil minimizes contributions from the fluorescence outside of the measurement point by separating the excitation and detection paths. Another band-pass filter rejects reflected excitation light, and the fluorescence collected by aperture Rd is detected using a red-extended end-on photomultiplier tube selected for low (<100 count/sec.) dark noise. As the focus lens is driven forward the emission signal is continuously monitored from retina to cornea, giving an intensity output. […]

[6] = cited from earlier work; remark: listed apart in the source
RPE cells = settings: 2.5 mg/ml; cited from earlier work

For CCCCCCCC/C=C\CCCCCCCC(=O)OC[C@H](COP(=O)(O)OCCN)OC(=O)CCCCCCC/C=C\CCCCCCCC [DOPE], which “Melting temperature, Tm” value [1] is on record?
The value was ~63° ° C.

With CCCCCCCCCCCCCCCCCC(=O)OCC(COP(=O)(O)OCC(O)CO)OC(=O)CCCCCCCCCCCCCCCCC (stereo not drawn) [DSPG] as the compound, how does the “Melting temperature, Tm” value [1] read?
The value was ~40° ° C.

Which “oxidation of L-DOPA” value ([2]; PBS pH 7.4, after 3 days, minimal exposure to light) does the source give for N[C@@H](Cc1ccc(O)c(O)c1)C(=O)O [L-DOPA] here?
Its value is “does not undergo complete oxidation”.

And the “oxidation of L-DOPA” value ([2]; pH 7.4 solution, after 35 days)?
Its value is “substantial oxidation”.

And the “oxidation of L-DOPA” value ([2]; pH 10, after 24 hours)?
Its value is “completely consumed”.

And the “drug oxidized to melanin” value ([3]; after 24 hr in neutral pH)?
The value was 47%.

And the drug oxidized ([3]; under basic conditions)?
Its drug oxidized is “at least 50.9%”.

And the “unmetabolized drug reaching the brain” value [4]?
Its value is “less than 1%”.

With CCCCCCCCCCCCCC(=O)OC[C@H](COP(=O)([O-])OCC[N+](C)(C)C)OC(=O)CCCCCCCCCCCCC [DMPC] as the compound, how does the “Melting temperature, Tm” value [1] read?
Its value is ~42° ° C.

With CC(C)CCC[C@@H](C)[C@H]1CC[C@H]2[C@@H]3CC=C4C[C@@H](O)CC[C@]4(C)[C@H]3CC[C@]12C [Cholesterol] as the compound, how does the “Melting temperature, Tm” value [1] read?
The value was ~154° ° C.

What does the source list for “Bevacizumab: anti-VEGF antibody, anti-angiogenic agent”?
cell viability (MTT) (ARPE-19 cells): decreased slightly; Time of release of a therapeutic concentrate [5]: 5 weeks; intravitreal half-life ([6]; intravitreal): about 4.32 days; concentration in the vitreous ([6]; maintained over a period of 30 days): about 10 μg/ml; effect on RPE cells (RPE cells): cytotoxic effects
